Measurements taken from the NIST ThermoML archive (doi:10.1016/j.jct.2016.01.026).

Test: osmotic coefficient (dimensionless); mn = molality of the nth substance listed, in mol/kg
Conditions: 323.15 K, 100 kPa, Liquid, Knauer K-7000 vapor pressure osmometer (VPO)

CCC[N+]1(C)CCCCC1.O=S(=O)([O-])C(F)(F)F [1-methyl-1-propylpiperidinium triflate] + CC(C)O
Conditions	osmotic coefficient
m1 = 0.0801	0.897
m1 = 0.1937	0.743
m1 = 0.3155	0.645
m1 = 0.4021	0.587
m1 = 0.5062	0.545
m1 = 0.5964	0.516
m1 = 0.7001	0.491
m1 = 0.7943	0.466
m1 = 0.9894	0.443
m1 = 1.268	0.422

CCC[N+]1(C)CCCCC1.O=S(=O)([O-])C(F)(F)F [1-methyl-1-propylpiperidinium triflate] + CCC(C)O
Conditions	osmotic coefficient
m1 = 0.0525	0.851
m1 = 0.081	0.769
m1 = 0.0996	0.701
m1 = 0.1561	0.608
m1 = 0.1983	0.572
m1 = 0.2451	0.528
m1 = 0.304	0.498
m1 = 0.3569	0.477
m1 = 0.4029	0.457
m1 = 0.498	0.432
m1 = 0.5936	0.419
m1 = 0.7108	0.405

CCC[N+]1(C)CCCCC1.O=S(=O)([O-])C(F)(F)F [1-methyl-1-propylpiperidinium triflate] + CCCCCO
Conditions	osmotic coefficient
m1 = 0.0415	0.757
m1 = 0.0616	0.593
m1 = 0.0823	0.542
m1 = 0.1025	0.521
m1 = 0.1211	0.502
m1 = 0.1427	0.48
m1 = 0.1632	0.472
m1 = 0.1816	0.465
m1 = 0.2018	0.451
m1 = 0.2209	0.441
m1 = 0.2407	0.431
m1 = 0.2643	0.418

CCC[N+]1(C)CCCCC1.O=S(=O)([O-])C(F)(F)F [1-methyl-1-propylpiperidinium triflate] + CCCCO
Conditions	osmotic coefficient
m1 = 0.053	0.781
m1 = 0.0791	0.706
m1 = 0.0996	0.657
m1 = 0.1455	0.604
m1 = 0.2006	0.559
m1 = 0.25	0.519
m1 = 0.3019	0.491
m1 = 0.355	0.467
m1 = 0.4011	0.453
m1 = 0.4998	0.417
m1 = 0.5953	0.403
m1 = 0.7001	0.387
m1 = 0.78	0.379

CCC[N+]1(C)CCCCC1.O=S(=O)([O-])C(F)(F)F [1-methyl-1-propylpiperidinium triflate] + CCCO
Conditions	osmotic coefficient
m1 = 0.0866	0.825
m1 = 0.1046	0.769
m1 = 0.1966	0.661
m1 = 0.2936	0.585
m1 = 0.3928	0.521
m1 = 0.5005	0.483
m1 = 0.6023	0.468
m1 = 0.7009	0.452
m1 = 0.8047	0.438
m1 = 1.008	0.418
m1 = 1.195	0.398
m1 = 1.422	0.379
